{"source": "Sander's compilation of Henry's law constants (doi:10.1021/je00012a017)", "details_in_all_cases": "reference: Hansen et al. (1993)", "key": {"[1]": {"assay": "Henry solubility constant Hcp at 298.15 K (mol/(m3 Pa))"}, "[2]": {"assay": "Henry solubility constant Hcp at 302 K (mol/(m3 Pa))"}, "[3]": {"assay": "Henry solubility constant Hcp at 301 K (mol/(m3 Pa))"}}, "data": [{"smiles": "CC(Cl)(Cl)Cl", "note": "[1,1,1-trichloroethane]", "values": [{"measurement": "Henry solubility constant Hcp", "setting": "[1]", "value": 0.00059}]}, {"smiles": "ClCC(Cl)Cl", "note": "[1,1,2-trichloroethane]", "values": [{"measurement": "Henry solubility constant Hcp", "setting": "[1]", "value": 0.012}]}, {"smiles": "Cc1ccc(C)c(C)c1", "note": "[1,2,4-trimethylbenzene]", "values": [{"measurement": "Henry solubility constant Hcp", "setting": "[1]", "value": 0.0015}]}, {"smiles": "Cc1ccc(C)cc1", "note": "[1,4-dimethylbenzene]", "values": [{"measurement": "Henry solubility constant Hcp", "setting": "[1]", "value": 0.0012}]}, {"smiles": "CCCCC(C)C", "note": "[2-methylhexane]", "values": [{"measurement": "Henry solubility constant Hcp", "setting": "[1]", "value": "1.9e-05"}]}, {"smiles": "Cc1ccc2ccccc2c1", "note": "[2-methylnaphthalene]", "values": [{"measurement": "Henry solubility constant Hcp", "setting": "[1]", "value": "5e-05"}]}, {"smiles": "CC(C)c1ccccc1", "note": "[(2-propyl)-benzene]", "values": [{"measurement": "Henry solubility constant Hcp", "setting": "[1]", "value": 0.00087}]}, {"smiles": "c1ccccc1", "note": "[benzene]", "values": [{"measurement": "Henry solubility constant Hcp at 302 K", "setting": "[2]", "value": 0.0015}]}, {"smiles": "Brc1ccccc1", "note": "[bromobenzene]", "values": [{"measurement": "Henry solubility constant Hcp", "setting": "[1]", "value": 0.0053}]}, {"smiles": "C1CCCCC1", "note": "[cyclohexane]", "values": [{"measurement": "Henry solubility constant Hcp at 301 K", "setting": "[3]", "value": "6e-05"}]}, {"smiles": "C1CCCC1", "note": "[cyclopentane]", "values": [{"measurement": "Henry solubility constant Hcp", "setting": "[1]", "value": "6.5e-05"}]}, {"smiles": "CCCCCCC", "note": "[heptane]", "values": [{"measurement": "Henry solubility constant Hcp", "setting": "[1]", "value": "1.2e-05"}]}, {"smiles": "Cc1ccccc1", "note": "[methylbenzene]", "values": [{"measurement": "Henry solubility constant Hcp at 302 K", "setting": "[2]", "value": 0.0014}]}, {"smiles": "CC1CCCCC1", "note": "[methylcyclohexane]", "values": [{"measurement": "Henry solubility constant Hcp", "setting": "[1]", "value": "9.6e-05"}]}, {"smiles": "CCCCCCCC", "note": "[octane]", "values": [{"measurement": "Henry solubility constant Hcp", "setting": "[1]", "value": "3e-05"}]}, {"smiles": "ClC(Cl)(Cl)Cl", "note": "[tetrachloromethane]", "values": [{"measurement": "Henry solubility constant Hcp", "setting": "[1]", "value": 0.00033}]}]}
